PMC8766756, “Insights on Cancer Cell Inhibition, Subcellular Activities, and Kinase Profile of Phenylacetamides Pending 1H-Imidazol-5-One Variants” (Frontiers in Pharmacology, 2022)
Several values for one entry are separate records, joined by “and”; a condition that tells them apart may be missing. Identical values can stand only once.

Experiments:
Assay in all cases: PamChip tyrosine kinase microarray
Assay type in all cases: biochemical
Details in all cases: 0.1 µM, HL60 lysate
[1] = target: T1, EphA2 (P29317) (Homo sapiens, UniProt P29317)
T1 construct: purchased PamGene (PamChip PTK array, Upstream Kinase Analysis)
T1 sequence (P29317 24-976): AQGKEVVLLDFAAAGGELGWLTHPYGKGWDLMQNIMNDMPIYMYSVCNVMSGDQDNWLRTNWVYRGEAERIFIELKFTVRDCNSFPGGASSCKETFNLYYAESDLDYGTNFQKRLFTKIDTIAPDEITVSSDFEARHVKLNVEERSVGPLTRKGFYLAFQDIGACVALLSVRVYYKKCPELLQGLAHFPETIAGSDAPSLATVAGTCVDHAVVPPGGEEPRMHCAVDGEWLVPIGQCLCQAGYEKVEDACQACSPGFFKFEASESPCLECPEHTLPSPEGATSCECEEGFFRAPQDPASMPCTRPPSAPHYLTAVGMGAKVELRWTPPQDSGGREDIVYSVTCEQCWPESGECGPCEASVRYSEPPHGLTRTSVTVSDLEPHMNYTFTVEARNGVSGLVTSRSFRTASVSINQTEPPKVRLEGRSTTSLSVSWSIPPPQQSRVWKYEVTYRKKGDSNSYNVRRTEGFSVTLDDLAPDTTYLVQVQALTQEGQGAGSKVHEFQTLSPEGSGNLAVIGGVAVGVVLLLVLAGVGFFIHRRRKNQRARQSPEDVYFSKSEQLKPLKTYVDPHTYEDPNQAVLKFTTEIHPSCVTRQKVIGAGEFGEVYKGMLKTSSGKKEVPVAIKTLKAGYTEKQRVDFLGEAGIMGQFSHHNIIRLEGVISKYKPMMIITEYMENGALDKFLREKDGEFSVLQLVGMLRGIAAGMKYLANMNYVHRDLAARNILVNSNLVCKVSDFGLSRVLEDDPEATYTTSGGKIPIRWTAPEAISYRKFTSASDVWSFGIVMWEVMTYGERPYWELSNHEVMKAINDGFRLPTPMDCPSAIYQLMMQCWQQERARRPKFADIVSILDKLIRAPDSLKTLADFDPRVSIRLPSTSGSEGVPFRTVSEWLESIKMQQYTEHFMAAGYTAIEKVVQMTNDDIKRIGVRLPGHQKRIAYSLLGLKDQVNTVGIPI
Description: (§1) The reproducible high potency of KIM-161 on leukemia cell lines was initially speculated to encompass Src tyrosine kinase inhibition. Even so, we also suspected that KIM-161 might be affecting other tyrosine kinases because the HL60 cells are not among the most Src-dependent highly proliferative cells ([Collins, 1987]). Therefore, a profiling of the kinase activities was performed after treatment with KIM-161 using PamChip® tyrosine kinase microarray. This analysis is based on incubation of cell lysate with 3D microarray that projects peptides specific for 143 tyrosine kinases. If a kinase is modified in the cells, it will be detected by phosphorylating its specific peptide in the microarray.
(§2) This test measured the activities of an array of tyrosine kinases of treated HL60 cells compared to the control (untreated cells) after incubation with KIM-161 for 48 h at concentrations of 0.001, 0.01, 0.1, 1.0, 10, and 50 µM. The log fold change (LFC) heat map was initially used to identify significant peptides affected at each concentration (Figure 5).
(§3) An Upstream Kinase Tool was used to generate a putative list of kinases responsible for phosphorylating the phosphosites on the PamChip®. It is an interpretation and is highly dependent on the contents of the underlying phosphorylation databases. Kinase score (Table 2) was used for ranking kinases based on their significance and specificity in terms of the set of peptides used for the corresponding kinase. Kinase statistics indicates the overall change of the peptide set that represents a certain kinase. Kinase statistics value of <0 indicates lower kinase activity in the lysate spiked with the compound and vice versa. Table 2 lists the 20 most changed kinases within treated HL60 cell lysates by 0.1 μM KIM-161.
(§4) Every compound had spiked into a leukemic (AML) cell line HL60 lysate at different concentrations (0.001, 0.01, 0.1, 1, 10, and 50 μM). In addition, DMSO had also spiked at a low concentration (2% v/v) to the HL60 lysate as the control. The samples were profiled on PamGene's tyrosine kinase (PTK) arrays in technical replicates, covering a total of 196 phosphorylation sites. The frozen leukemic HL60 cultured cell pellet was sent to PamGene. At PamGene, the cells were lysed in the presence of the lysis buffer and proteases inhibitor cocktail. The protein concentration was measured using the standard Bradford assay as per the PamGene SOPs. These lysates were further used for generating the PTK activity profiles. For spiking, KIM-161 was received in powder form and dissolved in DMSO at the PamGene facility, followed by storing it at −20°C in small aliquots. PamGene used its in-house bioinformatics toolbox in combination with other methods to generate the hypotheses of signaling pathways.

[2] = target: T2, BLK (P51451) (Homo sapiens, UniProt P51451)
T2 construct: purchased PamGene (PamChip PTK array, Upstream Kinase Analysis)
T2 sequence (P51451 whole entry): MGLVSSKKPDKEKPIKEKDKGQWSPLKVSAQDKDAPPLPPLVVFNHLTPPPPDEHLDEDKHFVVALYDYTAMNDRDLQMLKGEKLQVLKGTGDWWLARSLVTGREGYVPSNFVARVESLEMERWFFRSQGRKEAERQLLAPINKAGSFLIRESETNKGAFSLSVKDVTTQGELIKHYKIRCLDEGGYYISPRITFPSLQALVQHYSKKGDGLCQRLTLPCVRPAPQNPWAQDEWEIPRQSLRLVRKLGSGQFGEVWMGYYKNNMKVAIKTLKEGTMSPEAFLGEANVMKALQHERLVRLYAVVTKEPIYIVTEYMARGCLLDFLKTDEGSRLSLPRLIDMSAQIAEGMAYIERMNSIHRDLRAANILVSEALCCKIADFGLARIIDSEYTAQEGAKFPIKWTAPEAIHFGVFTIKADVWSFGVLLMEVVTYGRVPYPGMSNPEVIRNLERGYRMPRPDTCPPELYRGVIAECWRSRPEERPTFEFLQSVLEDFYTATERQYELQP
Description: as §1, §2, §3, §4

[3] = target: T3, ZAP70 (P43403) (Homo sapiens, UniProt P43403)
T3 construct: purchased PamGene (PamChip PTK array, Upstream Kinase Analysis)
T3 sequence (P43403 1-619): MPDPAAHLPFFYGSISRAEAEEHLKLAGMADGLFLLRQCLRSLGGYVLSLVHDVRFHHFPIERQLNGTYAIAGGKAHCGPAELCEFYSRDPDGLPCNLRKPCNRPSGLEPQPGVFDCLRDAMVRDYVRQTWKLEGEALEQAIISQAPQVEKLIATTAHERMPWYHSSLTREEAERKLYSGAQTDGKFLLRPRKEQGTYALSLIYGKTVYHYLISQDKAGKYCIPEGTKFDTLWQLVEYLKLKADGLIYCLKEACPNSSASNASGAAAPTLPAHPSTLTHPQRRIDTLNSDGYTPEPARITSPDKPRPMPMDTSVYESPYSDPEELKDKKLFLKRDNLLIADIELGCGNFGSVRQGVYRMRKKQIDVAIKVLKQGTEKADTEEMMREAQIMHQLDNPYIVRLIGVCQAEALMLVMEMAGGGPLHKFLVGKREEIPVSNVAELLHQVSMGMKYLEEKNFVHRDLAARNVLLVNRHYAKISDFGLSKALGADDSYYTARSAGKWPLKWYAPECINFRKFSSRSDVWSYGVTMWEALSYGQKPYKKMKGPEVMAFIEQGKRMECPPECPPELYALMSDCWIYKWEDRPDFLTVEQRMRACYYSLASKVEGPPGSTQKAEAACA
Description: as §1, §2, §3, §4

[4] = target: T4, FLT3 (P36888) (Homo sapiens, UniProt P36888)
T4 construct: purchased PamGene (PamChip PTK array, Upstream Kinase Analysis)
T4 sequence (P36888 27-993): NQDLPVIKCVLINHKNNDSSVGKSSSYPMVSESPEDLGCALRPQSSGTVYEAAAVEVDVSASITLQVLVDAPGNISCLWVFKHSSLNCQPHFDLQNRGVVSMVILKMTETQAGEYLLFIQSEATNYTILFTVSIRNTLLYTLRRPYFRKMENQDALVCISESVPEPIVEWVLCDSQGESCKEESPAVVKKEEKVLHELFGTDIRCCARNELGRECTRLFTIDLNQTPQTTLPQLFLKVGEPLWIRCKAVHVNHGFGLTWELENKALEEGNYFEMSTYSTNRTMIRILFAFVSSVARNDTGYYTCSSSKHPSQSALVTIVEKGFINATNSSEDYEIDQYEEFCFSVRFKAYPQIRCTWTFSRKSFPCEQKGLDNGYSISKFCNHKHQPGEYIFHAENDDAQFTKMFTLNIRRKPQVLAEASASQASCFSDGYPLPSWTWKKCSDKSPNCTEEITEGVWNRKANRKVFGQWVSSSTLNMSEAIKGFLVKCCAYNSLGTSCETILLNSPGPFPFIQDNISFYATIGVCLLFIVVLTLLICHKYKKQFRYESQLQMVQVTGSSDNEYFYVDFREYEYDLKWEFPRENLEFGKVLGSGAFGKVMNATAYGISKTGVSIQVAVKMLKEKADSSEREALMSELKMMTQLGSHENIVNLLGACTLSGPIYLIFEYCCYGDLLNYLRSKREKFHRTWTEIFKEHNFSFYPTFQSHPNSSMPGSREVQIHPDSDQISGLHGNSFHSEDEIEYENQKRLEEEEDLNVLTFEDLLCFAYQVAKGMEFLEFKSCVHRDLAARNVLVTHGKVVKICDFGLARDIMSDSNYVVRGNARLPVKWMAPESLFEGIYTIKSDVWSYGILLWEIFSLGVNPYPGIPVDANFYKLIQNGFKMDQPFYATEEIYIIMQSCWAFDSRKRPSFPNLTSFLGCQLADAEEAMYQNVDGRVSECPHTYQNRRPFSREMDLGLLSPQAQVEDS
Description: as §1, §2, §3, §4

COc1ccc(/C=C2\N=C(C)N(c3ccc(CC(=O)NCc4ccccc4)cc3)C2=O)cc1 [Compound 4c, (Z)-N-Benzyl-2-(4-(4-(4-methoxybenzylidene)-2-methyl-5-oxo-4,5-dihydro-1H-imidazol-1-yl)phenyl)acetamide]
Mean Significance Score [1]: 1.975
Mean Specificity Score [1]: 0.9606
Mean Final score (Kinase score) ([1]; listed as KIM-161): 3.09 and 3.095
Mean Final score (Kinase score) [2]: 1.48
Mean Kinase Statistic [2]: -1.015
Mean Significance Score [2]: 1.433
Mean Specificity Score [2]: 0.07394
Mean Final score (Kinase score) [3]: 1.771
Mean Kinase Statistic [3]: -1.015
Mean Significance Score [3]: 1.836
Mean Specificity Score [3]: 0.009048
Mean Significance Score [4]: 2.042
Mean Specificity Score [4]: 1.043
Mean Final score (Kinase score) ([4]; listed as KIM-161): 3.19 and 3.193
